Data as given in patent US10428024B2, “Piperidinyl derivatives” (MERCK PATENT GMBH, priority 2016, dated 2019).

Each compound was assayed against human PDHK2 (12-407) (Homo sapiens (Human), UniProt Q15119) (assay: Isothermal titration calorimetry (ITC)). Settings: 30° C., pH 7.5; read-out: Binding (ITC) KD.
Description: Isothermal Titration Calorimetry
ITC measurements were performed with a VP-ITC micro calorimeter (Microcal, LLC/GE Healthcare Bio-Sciences AB, Uppsala, Sweden). In general titrations were performed by titrating the protein (50 μM) to the test compound (5 μM) in 12 μl injections. All binding experiments were carried out at 30° C. In general the test compounds were diluted form DMSO stock solutions into the measurement buffer with a maximum final concentration of 1% DMSO. The measurement buffer was 20 mM HEPES, 135 mM KCl, 1 mM TCEP, 2 mM MgCl2, 15 mM NaH2PO4, pH 7.5. The human PDHK2 (12-407) was produced in E. coli as his-tagged protein and purified by affinity chromatography. The tag was removed by side specific proteolysis. Before titration the protein buffer was changed to the measurement buffer containing the same DMSO concentration as the test compound dilution. ITC data analysis was performed using Origin 7 calorimetry software from the same supplier. For most measurements a binding model of one binding site was assumed. According to the applied mathematical model it is possible to calculate the binding constant (KA), the observed binding enthalpy (ΔH^obs) as well as the stoichiometry (N) of the formed complex. Preceding analysis the raw data was corrected for the heats of dilution by extrapolating from the saturation value from the end of titration. In order to allow for direct comparison between the respective experimental series and protein preparations the protein concentration was corrected by referencing titrations to a well behaved standard inhibitor. The apparent stoichiometry values defined the fraction of binding competent protein and compensated for relative errors in protein concentration measurements. This corrected protein concentration was used to set up ITC experiment series with test compounds. Any deviations from ideal 1:1 stoichiometry observed here were attributed to errors in compound concentration. This nominal compound concentration was corrected as well to achieve 1:1 stoichiometry in the fit.

Row | Kd | SMILES
1 | 0.21 µM | CN(C(=O)C1CCN(C(=O)[C@@](C)(O)C(F)(F)F)CC1)c1ccc(C#N)cc1 [Compound A4, 1-((R)-3,3,3-Trifluoro-2-hydroxy-2-methyl-propionyl)-piperidine-4-carboxylic acid (4-cyano-phenyl)-methyl-amide]
2 | 5 µM | Cc1ccc(N(C)C(=O)[C@@H]2CCN(C(=O)[C@@](C)(O)C(F)(F)F)C[C@@H]2C)c(F)c1 [Compound A14, (3R,4R)—N-(2-fluoro-4-methylphenyl)-N,3-dimethyl-1-[(2R)-3,3,3-trifluoro-2-hydroxy-2-methylpropanoyl]piperidine-4-carboxamide]

These compounds were tested against PDHK2 (Homo sapiens (Human), UniProt Q15119) (assay: Biochemical activity testing of PDHK2: PDC inactivation assay). Settings: human rec PDHK2, 5 μM ATP, read-out: IC50 PDHK2 (enzyme assay).
Description: Biochemical Activity Testing of PDHK2: PDC Inactivation Assay
The biochemical activity assay for PDHK2 is based on the inactivation of PDC through phosphorylation by PDHK2. The assay is run in two steps: the enzymatic PDHK2 reaction in which isolated PDC is phosphorylated by PDHK2 with ATP as co-substrate and the PDC activity assay in which pyruvate and NAD are converted to acetyl-CoA and NADH. The PDC activity correlates to the increase in NADH and thereby is detectable directly via the increasing fluorescence signal (Exc 340 nm, Em 450 nm). Inhibition of PDHK2 results in a lower phosphorylation status and thereby a less decrease in activity of PDC and a stronger increase in NADH fluorescence signal.
The PDC inactivation assay is performed in Greiner 384-well microtiter plates and is used for high throughput screen. 4 μl of PDHK2 (human, rec, Carna Bioscience, 10 ng/μl-137 nM final concentration) and PDC (isolated from porcine heart, Sigma-Aldrich, 20 mU/ml final concentration) are incubated in the absence or presence of the test compound (10 dilution concentrations) for 30 min at room temperature in kinase buffer (15 mM potassium phosphate buffer, pH 7.0, 60 mM KCl, 1.5 mM DTT, 2.5 mM MgCl2, 0.0125% (w/v) BSA, 0.125% Pluronic F-68). The kinase reaction is started by the addition of 4 μl ATP substrate solution (fc 5 μM in kinase buffer). After 30 min incubation at 37° C. 40 μl of PDC reaction solution (100 mM Tris/HCl, pH 7.8, 0.5 mM EDTA, 1 mM MgCl2, 50 mM NaF, 0.25 mM Coenzyme A, 5 mM pyruvate, 1 mM NAD, 5 mM DTT, 1 mM thiamine pyrophosphate) is added. The first fluorescence measurement is performed on a Perkin Elmer Envision (Exc 340 nm, Em 450 nm). The reaction is incubated for 45 min at room temperature. Afterwards a second fluorescence measurement is performed and the PDC activity is calculated by the difference between both measurements. As full value for the PDHK2 assay the inhibitor-free PDHK2 reaction is used. The pharmacological zero value used is DCA (Sigma-Aldrich) in a final concentration of 3 mM. The inhibitory values (IC50) were determined using either the program Symyx Assay Explorer® or Condosseo® from GeneData.

Row | SMILES | IC50
3 | CN(C(=O)C1CCN(C(=O)[C@@](C)(O)C(F)(F)F)CC1)c1ccc(C#N)cc1 [Compound A4, 1-((R)-3,3,3-Trifluoro-2-hydroxy-2-methyl-propionyl)-piperidine-4-carboxylic acid (4-cyano-phenyl)-methyl-amide] | 1.5 µM
4 | Cc1ccc(N(C)C(=O)[C@@H]2CCN(C(=O)[C@@](C)(O)C(F)(F)F)C[C@@H]2C)c(F)c1 [Compound A14, (3R,4R)—N-(2-fluoro-4-methylphenyl)-N,3-dimethyl-1-[(2R)-3,3,3-trifluoro-2-hydroxy-2-methylpropanoyl]piperidine-4-carboxamide] | 0.77 µM
5 | CC1CN(C(=O)[C@@](C)(O)C(F)(F)F)CCC1C(=O)N(C)c1ccc(C(F)(F)F)cc1Cl (stereo partly drawn) [Compound A15, N-[2-chloro-4-(trifluoromethyl)phenyl]-N,3-dimethyl-1-[(2R)-3,3,3-trifluoro-2-hydroxy-2-methylpropanoyl]piperidine-4-carboxamide] | 1.7 µM
6 | C[C@H]1CN(C(=O)[C@@](C)(O)C(F)(F)F)CC[C@H]1N(C)C(=O)c1ccc(F)cc1 [Compound A30, 4-Fluoro-N-methyl-N-[(3S,4R)-3-methyl-1-[(2R)-3,3,3-trifluoro-2-hydroxy-2-methylpropanoyl]piperidin-4-yl]benzamide] | 7.9 µM
7 | C[C@H]1CN(C(=O)[C@@](C)(O)C(F)(F)F)CC[C@H]1N(C)C(=O)c1ccccc1 [Compound A33, N-Methyl-N-[(3S,4R)-3-methyl-1-[(2R)-3,3,3-trifluoro-2-hydroxy-2-methylpropanoyl]piperidin-4-yl]benzamide] | 3.4 µM
8 | C[C@H]1CN(C(=O)[C@@](C)(O)C(F)(F)F)CC[C@H]1N(C)C(=O)c1ccc(F)cc1F [Compound A39, 2,4-Difluoro-N-methyl-N-[(3S,4R)-3-methyl-1-[(2R)-3,3,3-trifluoro-2-hydroxy-2-methylpropanoyl]piperidin-4-yl]benzamide] | 4.9 µM
9 | C[C@H]1CN(C(=O)[C@@](C)(O)C(F)(F)F)CC[C@H]1N(C)C(=O)c1ncc(F)cc1F [Compound A42, 3,5-Difluoro-N-methyl-N-[(3S,4R)-3-methyl-1-[(2R)-3,3,3-trifluoro-2-hydroxy-2-methylpropanoyl]piperidin-4-yl]pyridine-2-carboxamide] | 2.4 µM
10 | C[C@H]1CN(C(=O)[C@@](C)(O)C(F)(F)F)CC[C@H]1N(C)C(=O)c1ccc(C(F)(F)F)cc1F [Compound A48, 2-Fluoro-N-methyl-N-[(3S,4R)-3-methyl-1-[(2R)-3,3,3-trifluoro-2-hydroxy-2-methylpropanoyl]piperidin-4-yl]-4-(trifluoromethyl)benzamide] | 2.4 µM
11 | C[C@H]1CN(C(=O)[C@@](C)(O)C(F)(F)F)CC[C@H]1N(C)C(=O)c1ccc(F)cc1Cl [Compound A51, 2-Chloro-4-fluoro-N-methyl-N-[(3S,4R)-3-methyl-1-[(2R)-3,3,3-trifluoro-2-hydroxy-2-methylpropanoyl]piperidin-4-yl]benzamide] | 3.6 µM
12 | C[C@H]1CN(C(=O)[C@@](C)(O)C(F)(F)F)CC[C@H]1N(C)C(=O)c1ccc(F)cn1 [Compound A54, 5-Fluoro-N-methyl-N-[(3S,4R)-3-methyl-1-[(2R)-3,3,3-trifluoro-2-hydroxy-2-methylpropanoyl]piperidin-4-yl]pyridine-2-carboxamide] | 13 µM
13 | C[C@H]1CN(C(=O)[C@@](C)(O)C(F)(F)F)CC[C@H]1N(C)C(=O)c1cnn(C)c1 [Compound A57, N,1-Dimethyl-N-[(3S,4R)-3-methyl-1-[(2R)-3,3,3-trifluoro-2-hydroxy-2-methylpropanoyl]piperidin-4-yl]-1H-pyrazole-4-carboxamide] | 19 µM
14 | C[C@H]1CN(C(=O)[C@@](C)(O)C(F)(F)F)CC[C@H]1N(C)C(=O)c1ccc(C(F)(F)F)cc1 [Compound A63, N-Methyl-N-[(3S,4R)-3-methyl-1-[(2R)-3,3,3-trifluoro-2-hydroxy-2-methylpropanoyl]piperidin-4-yl]-4-(trifluoromethyl)benzamide] | 2.9 µM

The remaining lines, values ahead:

Row | IC50 | SMILES
15 | 0.24 µM | Cc1ccc(N(C)C(=O)C2CCN(C(=O)[C@@](C)(O)C(F)(F)F)CC2C)cc1 (stereo partly drawn) [Compound A6, N,3-Dimethyl-N-(4-methylphenyl)-1-[(2R)-3,3,3-trifluoro-2-hydroxy-2-methylpropanoyl]piperidine-4-carboxamide]
16 | 5.1 µM | Cc1ccc(N(C)C(=O)[C@@H]2CCN(C(=O)[C@@](C)(O)C(F)(F)F)C[C@@H]2C)cc1 [Compound A8, (3R,4R)—N,3-Dimethyl-N-(4-methylphenyl)-1-[(2R)-3,3,3-trifluoro-2-hydroxy-2-methylpropanoyl]piperidine-4-carboxamide]
17 | 3.8 µM | C[C@H]1CN(C(=O)[C@@](C)(O)C(F)(F)F)CC[C@H]1C(=O)N(C)c1ccc(Cl)cc1 [Compound A11, (3R,4R)—N-(4-chlorophenyl)-N,3-dimethyl-1-[(2R)-3,3,3-trifluoro-2-hydroxy-2-methylpropanoyl]piperidine-4-carboxamide]
18 | 5.9 µM | C[C@H]1CN(C(=O)[C@@](C)(O)C(F)(F)F)CC[C@H]1N(C)C(=O)c1ccc(Cl)cc1 [Compound A22, 4-Chloro-N-methyl-N-[(3S,4R)-3-methyl-1-[(2R)-3,3,3-trifluoro-2-hydroxy-2-methylpropanoyl]piperidin-4-yl]benzamide]
19 | 2.7 µM | Cc1ccc(C(=O)N(C)[C@@H]2CCN(C(=O)[C@@](C)(O)C(F)(F)F)C[C@@H]2C)cc1 [Compound A25, N,4-Dimethyl-N-[(3S,4R)-3-methyl-1-[(2R)-3,3,3-trifluoro-2-hydroxy-2-methylpropanoyl]piperidin-4-yl]benzamide]
20 | 1.3 µM | COc1ccc(C(=O)N(C)[C@@H]2CCN(C(=O)[C@@](C)(O)C(F)(F)F)C[C@@H]2C)cc1 [Compound A36, 4-Methoxy-N-methyl-N-[(3S,4R)-3-methyl-1-[(2R)-3,3,3-trifluoro-2-hydroxy-2-methylpropanoyl]piperidin-4-yl]benzamide]
21 | 27 µM | C[C@H]1CN(C(=O)[C@@](C)(O)C(F)(F)F)CC[C@H]1N(C)C(=O)c1ccc(C#N)cc1 [Compound A45, 4-Cyano-N-methyl-N-[(3S,4R)-3-methyl-1-[(2R)-3,3,3-trifluoro-2-hydroxy-2-methylpropanoyl]piperidin-4-yl]benzamide]
22 | 3.9 µM | C[C@H]1CN(C(=O)[C@@](C)(O)C(F)(F)F)CC[C@H]1N(C)C(=O)c1ccc(Cl)cc1F [Compound A60, 4-Chloro-2-fluoro-N-methyl-N-[(3S,4R)-3-methyl-1-[(2R)-3,3,3-trifluoro-2-hydroxy-2-methylpropanoyl]piperidin-4-yl]benzamide]

The compounds below were run on PDH-E1alpha (pSer300) in HEK293T cells (assay: Cellular immunofluorescence assay (Anti-PDH-E1alpha (pSer300)) in HEK293T cells). Settings: Homo sapiens, HEK-293T, 5 hours incubation, read-out: IC50 (cell data).
Format: cell-based
Description: Cellular Assay for Determination of Compound Activities
Compound activities were determined in a cellular immunofluorescence assay.
Human HEK293T cells were seeded into black 384-well plates with clear bottom and grown overnight.
Next day, test compounds were added to the wells and the plates incubated for 5 hours. Following this, cells were fixed with formaldehyde, permeabilised and blocked. The primary antibody, Anti-PDH-E1alpha (pSer300), AP1064 (Merck Millipore) was added and incubated overnight in the plate wells. Next, cells were washed and the secondary antibody, Alexa Fluor 488, goat anti-rabbit ab (A-11008, Invitrogen) was added together with Hoechst 33258 (H3569, Invitrogen) and incubated for 1 hour in the plate wells. Finally, cells were washed and the plates were measured on the laser scanning cytometer acumen hci (TTpLabtech).
The raw data were normalized against a pharmacological inhibitor control and dose response curves were generated by plotting the percent effect values using the software package Genedata screener (Genedata).

Row | SMILES | IC50
23 | Cc1ccc(N(C)C(=O)C2CCN(C(=O)[C@@](C)(O)C(F)(F)F)CC2C)cc1 (stereo partly drawn) [Compound A6, N,3-Dimethyl-N-(4-methylphenyl)-1-[(2R)-3,3,3-trifluoro-2-hydroxy-2-methylpropanoyl]piperidine-4-carboxamide] | 0.2 µM
